The subject of experiment [1] is Pseudomonas aeruginosa (ATCC10145). Nature of the experiment: Bactericidal activity of laccase/enhancer systems, Malthus conductance enumeration of surviving cells. In kind it is cell-based. The conditions noted are these: for Bactericidal activity (log(cfu/ml)=the logarithm to the number of killed cells): enhancer 0.1 mM with rPpL or rMtL 3 mg/L, 20 min, approx. 10^4 cfu/ml. Here is the method:
(§1) Bactericidal activity was evaluated in 0.05 M MES-buffer (2-[N-morpholino]ethanesulfonic acid) (pH 6), which were flushed with air for 5 min before filter sterilisation. The bactericidal activity was determined against Pseudomonas aeruginosa (ATCC10145) and Staphylococcus epidermidis (DSM20042). Cells were grown in Tryptone Soya Broth (Oxoid CM129) at 30° C. for 24 h and diluted in the MES-buffer to a final cell concentration of approximately 10^4 cfu/ml. The cell suspensions were mixed with laccase (3 mg/L) and enhancer (0.1 mM) for 20 min at 40° C. The bactericidal activity was determined by incubation in Malthus. Detection times measured by the Malthus instrument were converted to cfu/ml by a calibration curve. Either direct or indirect Malthus measurements were used when enumerating total survival cells (Malthus Flexi M2060, Malthus Instrument Limited). By the direct measurements, the cell metabolism was determined by conductance measurements in the growth substrate. By the indirect measurements, 3 ml of growth medium was transferred to the outer chamber of the indirect Malthus cells, and 0.5 ml of sterile KOH (0.1 M) was transferred to the inner chamber. The cell suspensions were after enzyme treatment transferred to the outer chamber of the Malthus cell. As cells are growing in the outer chamber they produce CO2 which will dissolve in the KOH in the inner chamber and thereby change the conductance of the KOH. The amount of CO2 formed by the respiring cells surviving the enzyme treatment was used for estimating the number of viable cells. When the conductance change is measurable by the Malthus, a detection time (dt) will be recorded. The dt-s were converted to colony counts by use of a calibration curve relating cfu/ml to dt (Johansen et al. 1995. Journal of Applied Bacteriology 78:297-303, Johansen et al. 1997, Applied and Environmental Microbiology 63:3724-3728).
Antimicrobial activity (i.e. bactericidal activity) of Myceliophthera laccase (rMtL) and methylsyringate (MeS) was determined using a 32 factorial design at pH 6 at 40° C. in MES-buffer as described in example 1, however, a higher cell concentration was used (10^7-10^8 cfu/ml). Tested rMtL levels was 0-2,5-5 mg/L and MeS levels was 0-5-10 mM.
Antimicrobial activity (i.e. bactericidal activity) of Myceliophthera laccase (rMtL) and Polyporus laccase (rPpL) was determined against Staphylococcus epidermidis at pH 6 in MES-buffer as described in example 1, the laccases was used in the concentration of 3 mg/L. Acetosyringon, methylsyringate, ethylsyringate, butylsyringate and laurylsyringate were evaluated as electron-donors in the concentration of 0.2 mM.
Antimicrobial activity of laccases with two enhancers was determined against Pseudomonas aeruginosa (ATCC 10145) and Staphylococcus epidermidis (DSM 20042) at pH 6 as described in example 1. Methylsyringate and acetosyringon was used as enhancers and the laccase was rPpL (1 mg/L) and the antimicrobial activity was determined by use of a 32 factorial experimental design.

Experiment [2] has as its system Staphylococcus epidermidis (DSM20042). Described as above. The note with it: for bactericidal activity when combined with laccase: laccase (rMtL or rPpL) 3 mg/L; for bactericidal activity when combined with laccase / bactericidal activity without laccase / bactericidal activity when combined with Polyporus laccase / Bactericidal activity (log(cfu/ml)=the logarithm to the number of killed cells): pH 6, 40° C.; for bactericidal activity when combined with laccase / bactericidal activity without laccase / bactericidal activity when combined with Polyporus laccase: 20 minutes; for bactericidal activity without laccase: no laccase; for bactericidal activity when combined with Polyporus laccase: rPpL 3 mg/L; for Bactericidal activity (log(cfu/ml)=the logarithm to the number of killed cells): enhancer 0.1 mM with rPpL or rMtL 3 mg/L, 20 min, approx. 10^4 cfu/ml. Format: cell-based. As for the experimental part: as §1, with “63:3724-3728). […]” for “63:3724-3728).”

Consider `COc1cc(C(C)=O)cc(OC)c1O` [acetosyringon], for which the “bactericidal activity, comparison of the syringate-compounds as enhancers” value in experiment [1] (different syringate-compounds with laccase) was “most bactericidal enhancer”. The cell reduction result in experiment [1] (with rPpL (1 mg/L), pH 6, 40° C.) was “approximately 1.5 log units”. In experiment [2] (enhancer 0.2 mM), the “bactericidal activity when combined with laccase” value is listed as “significantly increased”, the “bactericidal activity without laccase” value is “did also show bactericidal activity” and the “bactericidal activity when combined with Polyporus laccase” value was 100%. For the same compound, in experiment [2] (enhancer 0.2 mM, rMtL 3 mg/L, pH 6, compared to Polyporus laccase and to the other syringate compounds), the “bactericidal activity with Myceliophthera laccase” value was “decreased”.

For `COc1cc(C=O)cc(OC)c1O` [syringaldehyde], the “Bactericidal activity (log(cfu/ml)=the logarithm to the number of killed cells)” value in experiment [1] (pH 6, 40° C.) is listed as “None of the other enhancers resulted in bactericidal activity”; in experiment [2], “None of the other enhancers resulted in bactericidal activity”.

On to `O=C(O)CCN1c2ccccc2Sc2ccccc21` [PPT, reference compound], for which the “Bactericidal activity (log(cfu/ml)=the logarithm to the number of killed cells)” value in experiment [1] (pH 6, 40° C.) is on record as “None of the other enhancers resulted in bactericidal activity”; in experiment [2], “None of the other enhancers resulted in bactericidal activity”.

For the compound `CCOC(=O)c1cc(OC)c(O)c(OC)c1` [ethylsyringate], the “bactericidal activity when combined with Polyporus laccase” value in experiment [2] (enhancer 0.2 mM) was determined as 100%.

For `CCCCOC(=O)c1cc(OC)c(O)c(OC)c1` [butylsyringate], in experiment [2] (enhancer 0.2 mM), the “bactericidal activity when combined with Polyporus laccase” value was 100%.

With `O=C(/C=C/c1ccc(O)c(O)c1)O[C@@H]1C[C@](O)(C(=O)O)C[C@@H](O)[C@H]1O` [chlorogenic acid, reference compound], the “Bactericidal activity (log(cfu/ml)=the logarithm to the number of killed cells)” value in experiment [1] (pH 6, 40° C.) is listed as “None of the other enhancers resulted in bactericidal activity”; in experiment [2], “None of the other enhancers resulted in bactericidal activity”.

On to `CCCCCCCCCCCCOC(=O)c1cc(OC)c(O)c(OC)c1` [laurylsyringate], for which, in experiment [2] (enhancer 0.2 mM), the “bactericidal activity when combined with laccase” value is recorded as “significantly increased” and the “bactericidal activity without laccase” value was “did also show bactericidal activity”.

For the compound `O=C(O)C=Cc1ccccc1` [cinnamic acid, reference compound], the “Bactericidal activity (log(cfu/ml)=the logarithm to the number of killed cells)” value in experiment [1] (pH 6, 40° C.) is recorded as “None of the other enhancers resulted in bactericidal activity”; in experiment [2] it was “None of the other enhancers resulted in bactericidal activity”.

The values above are taken from patent US20010025018A1, “Antimicrobial activity of laccases” (priority 1997, published 2001).
